The target of experiment [1] is Glycogen Synthase Kinase 3 (GSK-3) (Homo sapiens, UniProt P49841). Description: GSK-3 inhibition assay (standard coupled enzyme assay). The experiment is classed as biochemical. The note with it: 60 nM GSK-3, 10 μM ATP; read-out: GSK-3 Inhibitory Activity (Ki rating A-C). The procedure, abridged: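 Pyruvate kinase/lactate dehydrogenase-coupled assay with 60 nM GSK-3 and 300 μM HSSPHQp-SEDEEE peptide in HEPES pH 7.5; compound preincubated 5 min at 30 °C, reaction started with 10 μM ATP. NADH absorbance at 340 nm tracked over 5 min; IC50 from rates versus inhibitor concentration.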
Chain of Glycogen Synthase Kinase 3 (GSK-3) (P49841 whole entry): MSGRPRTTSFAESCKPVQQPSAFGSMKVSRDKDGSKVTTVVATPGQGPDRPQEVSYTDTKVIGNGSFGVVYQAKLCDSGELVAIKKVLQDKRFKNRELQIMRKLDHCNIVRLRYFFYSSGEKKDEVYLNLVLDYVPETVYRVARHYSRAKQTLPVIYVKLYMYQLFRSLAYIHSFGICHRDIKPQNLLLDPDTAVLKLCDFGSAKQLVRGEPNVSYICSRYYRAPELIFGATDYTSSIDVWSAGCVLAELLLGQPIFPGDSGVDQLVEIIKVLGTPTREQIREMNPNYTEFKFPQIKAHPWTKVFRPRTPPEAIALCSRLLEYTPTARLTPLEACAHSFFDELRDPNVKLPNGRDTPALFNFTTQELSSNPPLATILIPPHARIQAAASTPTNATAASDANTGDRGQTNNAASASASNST

The target in experiment [2] is T1, full length recombinant human Src kinase (Homo sapiens, UniProt P12931).
T1 construct: full length recombinant human Src kinase; purchased Upstate Biotechnology 14-117; host or cells: baculo viral cells (baculovirus expression)
T1 sequence (P12931 whole entry): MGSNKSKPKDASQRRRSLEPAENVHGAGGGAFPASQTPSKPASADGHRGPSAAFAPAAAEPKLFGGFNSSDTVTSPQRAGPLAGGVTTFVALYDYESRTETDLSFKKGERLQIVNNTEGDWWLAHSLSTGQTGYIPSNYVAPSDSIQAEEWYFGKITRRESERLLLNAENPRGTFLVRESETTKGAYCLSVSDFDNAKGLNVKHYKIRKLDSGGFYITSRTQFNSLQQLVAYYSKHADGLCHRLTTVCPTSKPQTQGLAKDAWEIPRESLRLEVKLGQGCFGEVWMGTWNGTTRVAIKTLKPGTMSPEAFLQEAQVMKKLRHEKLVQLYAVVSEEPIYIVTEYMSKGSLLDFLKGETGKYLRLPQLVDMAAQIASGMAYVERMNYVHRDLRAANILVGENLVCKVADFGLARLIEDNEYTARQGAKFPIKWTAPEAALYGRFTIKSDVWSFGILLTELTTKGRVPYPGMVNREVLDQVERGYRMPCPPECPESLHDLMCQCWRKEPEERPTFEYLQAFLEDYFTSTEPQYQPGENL
Description: Src inhibition assay (33P incorporation into poly Glu-Tyr). The experiment is classed as biochemical. The procedure:
The compounds were assayed as inhibitors of full length recombinant human Src kinase (from Upstate Biotechnology, cat. no. 14-117) expressed and purified from baculo viral cells. Src kinase activity was monitored by following the incorporation of ^33P from ATP into the tyrosine of a random poly Glu-Tyr polymer substrate of composition, Glu:Tyr=4:1 (Sigma, cat. no. P-0275). The following were the final concentrations of the assay components: 0.05 M HEPES, pH 7.6, 10 mM MgCl2, 2 mM DTT, 0.25 mg/ml BSA, 10 μM ATP (1-2 μCi ^33P-ATP per reaction), 5 mg/ml poly Glu-Tyr, and 1-2 units of recombinant human Src kinase. In a typical assay, all the reaction components with the exception of ATP were pre-mixed and aliquoted into assay plate wells. […] The assay plate was incubated at 30° C. for 10 min before initiating the reaction with ^33P-ATP. After 20 min of reaction, the reactions were quenched with 150 μl of 10% trichloroacetic acid (TCA) containing 20 mM Na3PO4. The quenched samples were then transferred to a 96-well filter plate (Whatman, UNI-Filter GF/F Glass Fiber Filter, cat no. 7700-3310) installed on a filter plate vacuum manifold. Filter plates were washed four times with 10% TCA containing 20 mM Na3PO4 and then 4 times with methanol. 200 μl of scintillation fluid was then added to each well. The plates were sealed and the amount of radioactivity associated with the filters was quantified on a TopCount scintillation counter.

A value given as a limit tells only on which side of the number the result lay.

On to `COc1cc(-c2ccnc(Nc3ccc(N)cc3)n2)cc(OC)c1OC` [Compound I-34], for which the Ki is 100 to 1000 nM in experiment [1] and > 1000 nM in experiment [2] (10 μM ATP, read-out: Activity in the SRC Inhibition Assay (Ki rating A-C)).
Take `COc1cc(-c2ccnc(Nc3cccc(N)c3)n2)cc(OC)c1OC` [Compound I-57]: the Ki in experiment [1] lay in the range of 100 to 1000 nM. The inhibition at 2 µM in experiment [2] (at a 2 μM inhibitor concentration, read-out: Activity in the SRC Inhibition Assay (percent inhibition rating D-F)) lay within 24 to 66%.

A word on the Ki: it is a dissociation constant, usually derived from enzyme kinetics or from competition with a known ligand. Broadly, the inhibition is how much of the control response was suppressed.

For the origin of these results see US6949544B2, “Inhibitors of c-Jun N-terminal kinases (JNK) and other protein kinases” (Vertex Pharmaceuticals Incorporated, priority 2001, dated 2005).
